The source of these data is patent US7319147B2, “Porphyrins and related compounds” (Bioscience Technology Investment Holdings Limited, priority 2000, dated 2008).

Data set [1] is described as follows: Normal tissue damage / cutaneous photosensitivity by ear swelling after irradiation. It is filed as in vivo, mice. Particulars: 0.88 μmol/kg; same light dose 24 h after drug injection. As for the experimental part:
In a separate group of mice, the normal tissue damage was assessed by irradiating one ear with 40 Jcm^−2 of broad spectrum white light delivered using a fibre bundle from the xenon light source. The incident power at the ear surface was 638 mWcm^−2 and light was applied for 63 s. Animal ears were irradiated with light 24 h after administration of N-Me-NC-m-THPP. The opposing ear served as a control. The response was assessed twenty-four hours after irradiation by measuring the ear thickness at three sites on the upper third of the ear using a fixed-force micrometer with a vernier-interpolated resolution of 2 μm and an accuracy of 10 μm (Neill instruments).

A further data set deals with syngeneic colo26 tumour. Particulars: m-THPP dose of 1.61 μmol/kg; light at 652 nm; Berenbaum et al. 1993; cited from earlier work.

With `Oc1cccc(-c2c3nc(c(-c4cccc(O)c4)c4ccc([nH]4)c(-c4cccc(O)c4)c4nc(c(-c5cccc(O)c5)c5ccc2[nH]5)CC4)C=C3)c1` [m-THPC, tetra(3-hydroxyphenyl)dihydroporphyrin], in data set [1], the “Ear Swelling (irradiated − control; μm)” value came out at 41 μm.
On to `Oc1cccc(-c2c3nc(c(-c4cccc(O)c4)c4ccc([nH]4)c(-c4cccc(O)c4)c4nc(c(-c5cccc(O)c5)c5ccc2[nH]5)C=C4)C=C3)c1` [m-THPP], for which the “tumour necrosis (literature)” value with syngeneic colo26 tumour was 0.14 mm.
